Measured values reported in ChEMBL document CHEMBL1140776, “Parasiticidal 2-alkoxy- and 2-aryloxyiminoalkyl trifluoromethanesulfonanilides” (2008).

Tests used:
Assay type in all cases: functional
Rhipicephalus sanguineus [1] = assay: Parasiticidal activity against Rhipicephalus sanguineus assessed as mortality after 24 hrs by brown dog tick assay; set-up: concentration or dose not given beside the values
Ctenocephalides felis [2] = assay: Parasiticidal activity against Ctenocephalides felis assessed as mortality after 24 hrs by cat flea assay; set-up: concentration or dose not given beside the values
Haemonchus contortus = assay: Parasiticidal activity against Haemonchus contortus by larval assay
Rhipicephalus sanguineus [3] = assay: Parasiticidal activity against Rhipicephalus sanguineus assessed per tick by brown dog tick assay
Ctenocephalides felis [4] = assay: Parasiticidal activity against Ctenocephalides felis by cat flea assay

SMILES	Activity (Rhipicephalus sanguineus [1]) [%]	Activity (Ctenocephalides felis [2]) [%]	LD99 (Haemonchus contortus) [µM]	LD50 (Rhipicephalus sanguineus [3]) [µg]	LC50 (Ctenocephalides felis [4]) [ng/cm2]
CC/C(=N\Oc1ccc(Cl)cc1)c1ccc(C(F)(F)F)cc1NS(=O)(=O)C(F)(F)F	17	100	–	–	–
CC/C(=N\OCC(F)(F)F)c1cc(Cl)ccc1NS(=O)(=O)C(F)(F)F	80	100	–	–	–
CCO/N=C(\C)c1cc(Cl)ccc1NS(=O)(=O)C(F)(F)F	85	100	>15	–	–
CC/C(=N\Oc1cccc(Cl)c1)c1cc(Cl)ccc1NS(=O)(=O)C(F)(F)F	–	100	3.6	–	–
C/C(=N\OCc1ccc(Cl)cc1)c1ccc(C(F)(F)F)cc1NS(=O)(=O)C(F)(F)F	27	100	–	–	–
C/C(=N\Oc1ccc(Cl)c(Cl)c1)c1cc(Cl)ccc1NS(=O)(=O)C(F)(F)F	–	71	1.6	–	–
CC/C(=N\OC)c1cc(Cl)ccc1NS(=O)(=O)C(F)(F)F	95	100	16	0.89	15
CC(C)/C(=N\Oc1ccc(Cl)cc1)c1cc(Cl)ccc1NS(=O)(=O)C(F)(F)F	65	100	11	1.7	71
CCC/C(=N\Oc1ccc(F)cc1)c1cc(Cl)ccc1NS(=O)(=O)C(F)(F)F	–	36	–	–	–
COCCO/N=C(\C)c1cc(Cl)ccc1NS(=O)(=O)C(F)(F)F	100	100	–	0.71	12
C/C(=N\OCc1ccc(Cl)cc1)c1cc(Cl)ccc1NS(=O)(=O)C(F)(F)F	72	100	3	–	–
C=CCO/N=C(\C)c1cc(Cl)ccc1NS(=O)(=O)C(F)(F)F	100	100	–	–	–
CC/C(=N\OCC1CCCC1)c1cc(Cl)ccc1NS(=O)(=O)C(F)(F)F	90	97	–	–	–
C=CCO/N=C(\CC)c1cc(Cl)ccc1NS(=O)(=O)C(F)(F)F	100	100	32	0.67	21
O=S(=O)(Nc1ccc(Cl)cc1/C(=N/OC1CCCCC1)c1ccccc1)C(F)(F)F	45	12	–	–	–
CCC/C(=N\OCc1ccc(Cl)cc1Cl)c1cc(Cl)ccc1NS(=O)(=O)C(F)(F)F	–	88	3.6	–	–

SMILES	Activity (Rhipicephalus sanguineus [1]) [%]	Activity (Ctenocephalides felis [2]) [%]	LD99 (Haemonchus contortus) [µM]	LD50 (Rhipicephalus sanguineus [3]) [µg]	LC50 (Ctenocephalides felis [4]) [ng/cm2]
CC1(C)C(C=C(Cl)Cl)C1C(=O)OCc1cccc(Oc2ccccc2)c1 (centres undefined)	–	–	–	0.14	–
C/C(=N\OCC1CCCC1)c1cc(Cl)ccc1NS(=O)(=O)C(F)(F)F	100	97	7.5	2.2	18
C/C(=N\OC(C)(C)C)c1cc(Cl)ccc1NS(=O)(=O)C(F)(F)F	92	100	16	1.4	41
CO/N=C(\C)c1cc(Cl)ccc1NS(=O)(=O)C(F)(F)F	93	100	–	–	–
CC/C(=N\Oc1ccc(Cl)c(Cl)c1)c1cc(Cl)ccc1NS(=O)(=O)C(F)(F)F	–	99	1.9	–	6
c1ccc([C@H]2CN3CCSC3=N2)cc1 [LEVAMISOLE]	–	–	0.71	–	–
C#CCO/N=C(\CC)c1cc(Cl)ccc1NS(=O)(=O)C(F)(F)F	100	100	20	0.86	27
CC/C(=N\OCc1ccc(Cl)cc1)c1ccc(C(F)(F)F)cc1NS(=O)(=O)C(F)(F)F	25	100	–	–	–
CC/C(=N\OCC1CCCCC1)c1ccc(C(F)(F)F)cc1NS(=O)(=O)C(F)(F)F	17	97	–	–	–
CC/C(=N\OCCOC)c1cc(Cl)ccc1NS(=O)(=O)C(F)(F)F	95	100	–	–	–
CC/C(=N\OC1CCCC1)c1cc(Cl)ccc1NS(=O)(=O)C(F)(F)F	100	100	25	1.5	21
CC/C(=N\OCc1ccc(Br)cc1)c1cc(Cl)ccc1NS(=O)(=O)C(F)(F)F	58	78	1.8	–	–
C/C(=N\Oc1ccc(Br)cc1)c1cc(Cl)ccc1NS(=O)(=O)C(F)(F)F	–	91	0.87	–	–
CCO/N=C(\C)c1cc(Br)ccc1NS(=O)(=O)C(F)(F)F	100	100	>13	1.2	11
C/C(=N\OC1CCCCC1)c1cc(Cl)ccc1NS(=O)(=O)C(F)(F)F	100	100	–	–	–
C/C(=N\OCC(F)(F)F)c1cc(Cl)ccc1NS(=O)(=O)C(F)(F)F	82	100	18	0.94	6
